Laboratory results reported in patent publication US20240082196A1, “COMBINED USE OF UBENIMEX AND IMMUNE CHECKPOINT INHIBITOR” (NIPPON KAYAKU KABUSHIKI KAISHA, priority 2021, published 2024).

Key:
[1] = test system: mouse melanoma cells B16-F0; experiment: antitumor effect in B16-F0 subcutaneous transplantation model; assay type: in vivo; settings: 15 days after transplantation
Protocol: The antitumor effect of the combined administration of ubenimex and the anti-mouse PD-1 antibody was evaluated with a model in which the mouse melanoma cells B16-F0 were subcutaneously transplanted. Fluctuation in cytokines and immune system markers was confirmed at the same time.
First, 2×10^5 B16-F0 were subcutaneously transplanted to female C57BL/6N mice (Charles River Laboratories Japan, Inc.) to produce a subcutaneous transplantation model.
Ubenimex was orally administered to subcutaneous transplantation model B16-F0 mice once a day, 14 times in total, in a dosage of 5 or 50 mg/kg from the day following the transplantation to 14 days after transplantation. Furthermore, an anti-mouse PD-1 antibody was intraperitoneally administered in a dosage of 200 μg/body 4, 7, 11, and 14 days after the transplantation. […]
The major axis and the minor axis of the tumors were measured with a digital micrometer caliper (Mitutoyo Corporation), and the tumor volumes (mm 3) were calculated by the expression “major axis×minor axis^2/2”. The relative tumor volume (T/C) of each treated group to the control group was calculated by the expression “average tumor volume of the test substance-treated group/average tumor volume of control group×100” using the tumor volume value 15 days after the transplantation. […]

Tregs = experiment: immunophenotyping of lymphocytes in peripheral blood by flow cytometry, B16-F0 model; assay type: in vivo, mouse; settings: ubenimex alone
Protocol: The blood collected by the autopsies after the confirmation of the antitumor effects was analyzed for lymphocytes in peripheral blood by flow cytometry.
The peripheral blood was subjected to hemolysis treatment with a Lysing Buffer to prepare peripheral blood mononuclear cells (PBMCs), the Fc receptors were then blocked with the anti-mouse CD16/32 antibody, and the cell surface markers CD45, CD3, CD4, CD8, and CD25 were stained. The PBMCs were fixed and permeabilized, and the nuclear factor FOXP3 was stained, and measurement was performed with the flow cytometer LSRII (Becton, Dickinson and Company).
Tregs identified using CD45+, CD3+, CD4+, CD25+, and FOXP3+ were used as indices for evaluation. The existence rate of Tregs in CD45-positive cells was calculated, and the number of Tregs per 1 μL of the peripheral blood was calculated from the value of the total white blood cell count.

[2] = mouse blood concentration transition, single oral administration; assay type: in vivo; settings: for AUC(0-inf) / Cmax / MRT inf / Tmax: fasted female C57BL/6N mice, plasma
Protocol: First, 9 nine-week-old fasted female C57BL/6N mice (Charles River Laboratories Japan, Inc.) in each group were subjected to the single oral administration of 5 mg/kg or 50 mg/kg of ubenimex. Blood collecting time points were 9 time points that were time points 5, 10, and 30 minutes, 1, 3, 6, 8, 12, and 24 hours after the administration. Then, 0.1 mL of blood was collected from the jugular vein under isoflurane anesthesia from 5 minutes to 6 hours after the administration, and the whole blood was collected from the vena cava under isoflurane anesthesia 8 hours or more after the administration. To secure n=3 at each time point, the blood collection was sparse blood collection in which blood was collected from one individual at 3 time points, and three animals were replaced as one set. Plasma was prepared from the obtained blood, and the plasma ubenimex concentration was measured with a liquid chromatography mass spectrometer (LC/MS/MS).

[3] = test system: mouse colon adenocarcinoma cells MC38; experiment: antitumor effect in MC38 subcutaneous transplantation model; assay type: in vivo; settings: 25 days after transplantation
Protocol: The antitumor effect of the combined administration of ubenimex and the anti-mouse PD-1 antibody was evaluated with a subcutaneous transplantation model of the mouse colon adenocarcinoma cells MC38.
Then, 1×10^5 MC38 cells were subcutaneously transplanted into female C57BL/6N mice (Charles River Laboratories Japan, Inc.) to produce the subcutaneous transplantation model. Ubenimex was orally administered to each subcutaneous transplantation model mouse of MC38 in a dosage of 0.5 or 5 mg/kg once a day, 24 times in total, from the day following the transplantation to 24 days after the transplantation. Furthermore, the anti-mouse PD-1 antibody was intraperitoneally administered in a dosage of 50 μg/body 7, 11, 14, 18, 21, and 24 days after the transplantation. […]
The major axis and the minor axis of the tumors were measured with a digital micrometer caliper (Mitutoyo Corporation), and the tumor volumes (mm 3) were calculated by the expression “major axis×minor axis^2/2”. The relative tumor volume (T/C) of each treated group to the control group was calculated by the expression “average tumor volume of the test substance-treated group/average tumor volume of control group×100” using the tumor volume value 25 days after the transplantation. […]

[4] = ubenimex 5 mg/kg oral once daily

AUC(0-inf) ([2]; mouse, 5 mg/kg single oral): 3240 ng·h/mL | Cmax ([2]; mouse, 5 mg/kg single oral): 4600 ng/mL | MRT inf ([2]; mouse, 5 mg/kg single oral): 52.3 min | Tmax ([2]; mouse, 5 mg/kg single oral): 4.98 min | AUC(0-inf) ([2]; mouse, 50 mg/kg single oral): 47700 ng·h/mL | Cmax ([2]; mouse, 50 mg/kg single oral): 44000 ng/mL | MRT inf ([2]; mouse, 50 mg/kg single oral): 55.1 min | Tmax ([2]; mouse, 50 mg/kg single oral): 10.2 min | AUCinf, ratio of 50 mg/5 mg ([2]; single oral, mouse): 14.7 times | Cmax, ratio of 50 mg/5 mg ([2]; single oral, mouse): 9.57 times | MRTinf, ratio of 50 mg/5 mg ([2]; single oral, mouse): 1.05 times
Structure (SMILES): CC(C)C[C@H](NC(=O)[C@@H](O)[C@H](N)Cc1ccccc1)C(=O)O [ubenimex, (2S)-2-[(2S,3R)-3-amino-2-hydroxy-4-phenylbutanoylamino]-4-methylpentanoic acid]
relative average tumor volume (T/C) to the control group [1, 4]: did not exhibit tumor growth inhibition effect | relative average tumor volume (T/C) to the control group ([1]; ubenimex 50 mg/kg oral once daily): did not exhibit tumor growth inhibition effect | numbers of Tregs in the peripheral blood (Tregs): no change | dosage proportionality ([2]; dosage of 5 to 50 mg/kg in the mouse): dosage proportionality was generally obtained | relative average tumor volume (T/C) to the control group ([3]; ubenimex 0.5 mg/kg oral once daily): 62% | relative average tumor volume (T/C) to the control group [3, 4]: 51%
